Consider 11 compounds from patent publication US9790233B2, “Compositions and methods of modulating 15-PGDH activity” (CASE WESTERN RESERVE UNIVERSITY, priority 2012, dated 2017).

Where two headings read alike, the source gives them in different places.

What all share (type): cell-based
Assay [1] relates to 15-PGDH luciferase fusion construct in V9m reporter cell line. Nature of the assay: 15-PGDH-luciferase fusion gene reporter induction, V9m cells.
The subject of assay [2] is 15-PGDH luciferase fusion construct in Vaco503 reporter cell line. Nature of the assay: 15-PGDH-luciferase fusion gene reporter induction, V503 cells.
The test system of assay [3] is 15-PGDH luciferase fusion construct in LS174T reporter cell line. Nature of the assay: 15-PGDH-luciferase fusion gene reporter induction, LS174T cells. The settings on record: Homo sapiens.
Where [4] appears, read: read-out: V9M-SC3 Reporter activity ([…]) (%), V9m reporter cells, […] compound, % induction of luciferase activity over basal level, read-out: V9M-SC3 Reporter activity (2.5 μM) (%).
The mark [5] stands for this setting: read-out: V9M-SC3 Reporter activity ([…]), %, V9m reporter cells, […] compound, % induction of luciferase activity over basal level, read-out: V9M-SC3 Reporter activity (7.5 μM), %.
Setting [6] is: read-out: V503-3H9-7 reporter activity, % ([…]), V503 reporter cells, […] compound, % induction of luciferase activity over basal level, read-out: V503-3H9-7 reporter activity, % (2.5 μM).
The mark [7] stands for this setting: read-out: V503-3H9-7 reporter activity, % ([…]), V503 reporter cells, […] compound, % induction of luciferase activity over basal level, read-out: V503-3H9-7 reporter activity, % (7.5 μM).
Where [8] appears, read: read-out: Ls174T-SC1 reporter activity, % ([…]), LS174T reporter cells, […] compound, % induction of luciferase activity over basal level, read-out: Ls174T-SC1 reporter activity, % (2.5 μM).
[9] abbreviates: read-out: Ls174T-SC1 reporter activity, % ([…]), LS174T reporter cells, […] compound, % induction of luciferase activity over basal level, read-out: Ls174T-SC1 reporter activity, % (7.5 μM).

Consider `COc1ccc(OC)c(N(CC(=O)Nc2cccnc2)S(=O)(=O)c2ccccc2C(F)(F)F)c1` [SW202944], for which the activation at […] in assay [1] (setting [4]) is -0.95%; in assay [1] (setting [5]) it was -3.73%; in assay [2] (setting [6]), 131%; in assay [2] (setting [7]), 94.6%; in assay [3] (setting [8]), 32.5%; in assay [3] (setting [9]), 15.8%.
For the compound `COc1ccc(OC)c(N(CC(=O)N(C)c2cccnc2)S(=O)(=O)c2ccccc2)c1` [SW203686], the activation at […] in assay [1] (setting [4]) was 15.1%; in assay [1] (setting [5]), 30.3%; in assay [2] (setting [6]), -11%; in assay [2] (setting [7]) it was 65.6%; in assay [3] (setting [8]), 116%; in assay [3] (setting [9]), 28.5%.
With `CCOC(=O)c1sc2nc(-c3cccs3)cc(-c3ccc(F)cc3)c2c1N` [compound 413423], the activation at […] in assay [1] (read-out: V9M reporter activity ([…]), […], % increased luciferase activity over basal level, 100 = doubling, read-out: V9M reporter activity (2.5 uM)) is -5.65%; in assay [1] (read-out: V9M reporter activity ([…]), […], % increased luciferase activity over basal level, 100 = doubling, read-out: V9M reporter activity (7.5 uM)), -8.76%; in assay [2] (read-out: V503 reporter activity ([…]), […], % increased luciferase activity over basal level, read-out: V503 reporter activity (2.5 uM)), 7.89%; in assay [2] (read-out: V503 reporter activity ([…]), […], % increased luciferase activity over basal level, read-out: V503 reporter activity (7.5 uM)) it was 3.13%; in assay [3] (read-out: LS174T reporter activity ([…]), […], % increased luciferase activity over basal level, read-out: LS174T reporter activity (2.5 uM)), 3.41%; in assay [3] (read-out: LS174T reporter activity ([…]), […], % increased luciferase activity over basal level, read-out: LS174T reporter activity (7.5 uM)) it was 3.91%.
On to `COc1ccc(OC)c(N(CC(=O)Nc2cccnn2)S(=O)(=O)c2ccccc2)c1` [SW203680], for which the activation at […] in assay [1] (setting [4]) came to 14%; in assay [1] (setting [5]), 25.2%; in assay [2] (setting [6]) it was 10.4%; in assay [2] (setting [7]), 33%; in assay [3] (setting [8]), 11.7%; in assay [3] (setting [9]) it was 46%.
With `COc1ccc(OC)c(N(CC(=O)Nc2cccnc2Cl)S(=O)(=O)c2ccccc2)c1` [SW202973], the activation at […] in assay [1] (setting [4]) was -15.6%; in assay [1] (setting [5]), 5.61%; in assay [2] (setting [6]), 41.5%; in assay [2] (setting [7]), 107%; in assay [3] (setting [8]) it was -16.4%; in assay [3] (setting [9]), 19.3%.
In the case of `COc1ccc(OC)c(N(CC(=O)OC2CCCCC2)S(=O)(=O)c2ccccc2)c1` [SW202978], the activation at […] was -13.8% in assay [1] (setting [4]); -0.07% in assay [1] (setting [5]); 46.8% in assay [2] (setting [6]); 116% in assay [2] (setting [7]); -10.1% in assay [3] (setting [8]); 20.4% in assay [3] (setting [9]).
On to `COc1ccc(OC)c(N(CC(=O)NC2CCCCC2)S(=O)(=O)c2ccccc2)c1` [333446-93-8], for which the activation at […] amounted to 16.5% in assay [1] (read-out: V9M-SC3 Reporter activity ([…]) (%), […], Table 18, read-out: V9M-SC3 Reporter activity (2.5 μM) (%)); 53.8% in assay [2] (read-out: V503-3H9-7 reporter activity, % ([…]), […], Table 18, read-out: V503-3H9-7 reporter activity, % (2.5 μM)); 44.1% in assay [2] (read-out: V503-3H9-7 reporter activity, % ([…]), […], Table 18, read-out: V503-3H9-7 reporter activity, % (7.5 μM)); 12.9% in assay [3] (read-out: Ls174T-SC1 reporter activity, % ([…]), […], Table 18, read-out: Ls174T-SC1 reporter activity, % (2.5 μM)); 13.5% in assay [3] (read-out: Ls174T-SC1 reporter activity, % ([…]), […], Table 18, read-out: Ls174T-SC1 reporter activity, % (7.5 μM)).
Take `COc1ccc(OC)c(N(CC(=O)N2CCCc3ccccc32)S(=O)(=O)c2ccccc2)c1` [SW208006]: the activation at […] in assay [1] (setting [4]) is 34.9%; in assay [1] (setting [5]), 0.15%; in assay [2] (setting [6]) it was 89.7%; in assay [2] (setting [7]), 43.9%; in assay [3] (setting [8]), 38.2%; in assay [3] (setting [9]), 42.2%.
Turning to `COc1ccc(N(CC(=O)Nc2ccccc2Br)S(=O)(=O)c2ccc(C)cc2)c(OC)c1` [compound 771138], the activation at […] in assay [1] (read-out: V9M reporter activity ([…]), […], % induction of luciferase activity over basal level, Table 17, read-out: V9M reporter activity (2.5 μM)) was -4.36%; in assay [1] (read-out: V9M reporter activity ([…]), […], % induction over basal level, Table 17, read-out: V9M reporter activity (7.5 μM)), 6.75%; in assay [2] (read-out: V503 reporter activity ([…]), […], % induction over basal level, Table 17, read-out: V503 reporter activity (2.5 μM)), 34.4%; in assay [2] (read-out: V503 reporter activity ([…]), […], % induction over basal level, Table 17, read-out: V503 reporter activity (7.5 μM)), 72.6%; in assay [3] (read-out: LS174T reporter activity ([…]), […], % induction over basal level, Table 17, read-out: LS174T reporter activity (2.5 μM)) it was 13.6%; in assay [3] (read-out: lS174T reporter activity ([…]), […], % induction over basal level, Table 17, read-out: lS174T reporter activity (7.5 μM)) it was 9.23%.
As for `COc1ccc(OC)c(N(CC(=O)Nc2cccnc2)C(C)=O)c1` [SW202952], the activation at […] is -20.7% in assay [1] (setting [4]); -19.5% in assay [1] (setting [5]); 26.2% in assay [2] (setting [6]); 7.16% in assay [2] (setting [7]); -10.3% in assay [3] (setting [8]); 10.6% in assay [3] (setting [9]).
In the case of `COc1ccc(OC)c(CN(CC(=O)Nc2cccnc2)S(=O)(=O)c2ccccc2)c1` [SW203688], the activation at […] in assay [1] (setting [4]) is 12.1%; in assay [1] (setting [5]), 6.04%; in assay [2] (setting [6]), -28.1%; in assay [2] (setting [7]), -99.5%; in assay [3] (setting [8]) it was 12.6%; in assay [3] (setting [9]), 14.8%.
